In patent publication US7816521B2, “1,2,4-benzotriazine-1,4-dioxides” (Auckland Uniservices Limited, priority 2004, dated 2010):
Values after ≈ are worked out from the molar mass of the structure shown.

What was measured:
[1] = system: hypoxic cells in HT29 tumours; experiment: HT29 excision assay (drug after 20 Gy radiation, clonogenic survival); type: in vivo, human; conditions: log10 kill of hypoxic cells in HT29 tumours, additional to radiation alone; MTD or 75% of MTD; Table 2
Excerpt: In order to test the validity of this PK/PD model as a tool for predicting the antitumour activity of TPZ analogues, the inventors determined the key PK/PD parameters for 13 TPZ analogues, and TPZ itself, for the HT29 human colon carcinoma cell line. These parameters were then used to calculate the expected killing in hypoxic regions of HT29 tumours following a single intraperitoneal dose of the compounds at their maximum tolerated dose. The results of this calculation were then compared with measured killing of hypoxic cells in HT29 tumours, determined by administering the compounds immediately (within 5 min) after gamma irradiation (cobalt 60, 20 Gy) to sterilise oxygenated cells in the tumours. Tumours were removed 18 hours later and the number of surviving cells determined by clonogenic assay. The measured PK/PD parameters, model prediction (using the above 3D microvascular network), and experimentally determined hypoxic cell kill is shown in Table 1, and the relationship between predicted and measured cell kill in FIG. 4. The prediction is statistically highly significant (p=0.001, Fisher exact test). […] If the extravascular transport component was excluded from the model, the R^2 for this regression was only 0.28 and the relationship was not statistically significant.
Animals were treated with radiation alone (RAD, 20 Gy whole body); RAD+TPZ (316 μmol/kg); compound 3 (562 μmol/kg); RAD+compound 3 (562 μmol/kg). Tumours were excised 18 hr after treatment and clonogenic survival determined by staining colonies 14 days later. Each symbol represents a separate tumour. p<0.01 (one way ANOVA with Dunnett's test) for RAD+compound 3 and for RAD+TPZ versus RAD only. Horizontal lines are the historical means for untreated controls (upper line) and 20 Gy radiation only (lower line).
Compounds were evaluated with single dose radiation using s.c. HT29 tumors (average of two largest diameters 7-10 mm) grown by inoculating 10^7 cells (obtained by enzymatic dissociation of multicellular spheroids). Drugs were administered as single i.p. doses at their MTD with the following groups in each experiment. A: vehicle control, B: test drug, C: Radiation (20 Gy, cobalt-60, whole body irradiation), D: TPZ (316 μmol/kg) 5 min after radiation, E: Test drug 5 min after radiation. Each group included 3 (A, B) or 5 (C-E) mice. Tumors were excised 18 hr after treatment and plated to determine clonogenicity. Hypoxic cytotoxicity is determined by the difference in surviving fraction between groups C and E, while comparison of A and B evaluates oxic cell killing. Total yield of clonogens was used as the key parameter if cell yields were affected by treatment. Results of this assay are illustrated for compound 3 (and TPZ) in FIG. 5.

[2] = system: human colon carcinoma cell line HT-29; experiment: Proliferation assay (IC50) under aerobic and hypoxic conditions; type: cell-based; conditions: for IC50: Homo sapiens, HT-29, HT29, anoxic, 4 hr exposure; for HCR: hypoxic cytotoxicity ratio: aerobic IC50 / hypoxic IC50, HT29
Protocol: Compounds representative of the invention were evaluated under both aerobic and hypoxic conditions in a proliferation assay (IC50) using the human colon carcinoma cell line HT-29 as previously described [Hay et al, J. Med. Chem, 2003, 46, 169]. For each experiment, compounds were simultaneously tested under both oxic and hypoxic conditions and included TPZ as an independent internal control at the front and back of the assay. In all cases, a 8-methyl-5-nitroquinoline derivative was used as a second internal control to confirm that strict hypoxia was present during the experiment [Siim et al., Br. J. Cancer 1994, 70, 596].

[3] = Solubility in culture medium; type: physicochemical; conditions: culture medium (αMEM with 5% foetal bovine serum), plasma or biological fluid, thermodynamic from solid; culture medium (αMEM, 5% foetal bovine serum), pH 7.4; no unit in table, threshold is 2 mM
Protocol: Solubility is determined in laboratory culture medium (alpha minimal essential medium (αMEM) with 5% foetal bovine serum) saturated with 5% carbon dioxide at pH 7.4, by addition of excess compound and sonication at ambient temperature for 15 minutes. Alternatively the compound is diluted from a concentrated stock solution in DMSO into culture medium to give a final DMSO concentration <1%. The mixture is centrifuged at 13,000 rpm for 6 minutes and the concentration of drug in the supernatant solution is then determined by HPLC using a standard reference solution in a suitable solvent.

[4] = Plasma pharmacokinetics, AUC of free drug in CD-1 nude mice; type: in vivo, mouse; conditions: CD-1 nude, mouse, plasma, ip, mouse plasma, free drug, at the MTD or 75% of the MTD; Table 2; read-out: AUC
Protocol: The area under the concentration time curve for free drug (AUCf) in mouse plasma at the maximum tolerated dose (MTD) was determined either experimentally or by calculation.
The compound was formulated in a suitable vehicle (e.g. 0.9% saline, 5% DMSO in 0.9% saline) and administered intraperitoneally (i.p.) as single dose to CD-1 nude mice in a dose-escalating format using 1.33-fold dose increments.
The compound was administered to CD-1 nude mice in a suitable formulation as a single dose (i.p.) at the MTD. Blood samples were collected by retro-orbital sinus bleed or cardiac puncture after which the mouse was culled, or by serial bleeding from the tail vein. Typical time points were 15, 30, 60, and 120 min after administration. Blood was collected in a heparinised container and centrifuged to collect the plasma. The plasma concentration of the compound was determined by HPLC or LCMS using suitable sample preparation and analytical methods. Calibration was done with internal or external standards. The area under the concentration-time curve (AUC) for total (free plus bound) drug was calculated using the linear/log trapezoidal rule and extrapolation to infinity OR standard non-compartmental (PK) modelling.
Plasma protein binding was measured by the determination of the free fraction (FF) by equilibrium dialysis at 37° C. in 50% (v/v) mouse plasma in phosphate-buffered saline (pH 7.4), using a single drug concentration at or near the observed or extrapolated maximum concentration in plasma (Cmax). Compound concentrations after dialysis were determined by HPLC or LCMS.
AUCf for the compound administered as a single dose (i.p.) to CD-1 nude mice at the MTD can be estimated using the following regression equation: Log10(AUCf)=a+b×log Pneutral+c×log10(IC50)+d×log10(HCR)+e×log10(DMCL)+f×log10(kmet)+g×(log Pneutral)^2 where the coefficients are described in the following table: […]

| Structure (SMILES) | HT29 log kill [1] | IC50 [2] [µM] | HCR [2] | solubility [3] [mM] | AUC [4] [µM·h] |
| --- | --- | --- | --- | --- | --- |
| Cc1ccc2c(c1)[n+]([O-])c(NCCCN1CCOCC1)n[n+]2[O-] [O, 6-Methyl-N-[3-(4-morpholinyl)propyl]-1,2,4-benzotriazin-3-amine 1,4-Dioxide] | 1.28 | 15.5 | 24.7 | 42.6 (≈ 13.6 mg/mL) | 195 |
| COc1ccc2c(c1)[n+]([O-])c(NCCN(C)C)n[n+]2[O-] [P, N^1-(6-Methoxy-1,4-dioxido-1,2,4-benzotriazin-3-yl)-N^2,N^2-dimethyl-1,2-ethanediamine] | 1.84 | 7.65 | 89.3 | 45.5 (≈ 12.7 mg/mL) | 240 |
| COCCOc1ccc2c(c1)[n+]([O-])c(NCCN(C)C)n[n+]2[O-] [Q, N^1-[6-(2-Methoxyethoxy)-1,4-dioxido-1,2,4-benzotriazin-3-yl]-N^2,N^2-dimethyl-1,2-ethanediamine] | 0.53 | 4.98 | 162.0 | 51.2 (≈ 16.6 mg/mL) | 256 |
| CCOc1ccc2c(c1)[n+]([O-])c(NCCN(C)C)n[n+]2[O-] [R, N^1,N^1-Dimethyl-N^2-(6-ethoxy-1,4-dioxido-1,2,4-benzotriazin-3-yl)-1,2-ethanediamine] | 0.83 | 2.6 | 120.6 | 50.3 (≈ 14.8 mg/mL) | 82.4 |
| CCc1ccc2c(c1)[n+]([O-])c(NCCCN1CCOCC1)n[n+]2[O-] [S, 6-Ethyl-N-[3-(4-morpholinyl)propyl]-1,2,4-benzotriazin-3-amine 1,4-Dioxide] | 0.82 | 10.4 | 35.0 | 54.9 (≈ 18.3 mg/mL) | 94.9 |
| CCc1n[n+]([O-])c2ccc(OCCN(C)C)cc2[n+]1[O-] [T, 2-[(3-Ethyl-1,4-dioxido-1,2,4-benzotriazin-6-yl)oxy]-N, N-dimethylethaneamine] | 0.88 | 1.33 | 307.2 | 48.5 (≈ 13.5 mg/mL) | 55.7 |
| CCc1n[n+]([O-])c2ccc(OCCCN3CCOCC3)cc2[n+]1[O-] [U, 3-Ethyl-6-[3-(4-morpholinyl)propoxy]-1,2,4-benzotriazine 1,4-Dioxide] | 1.66 | 6.17 | 166.2 | 46.7 (≈ 15.6 mg/mL) | 162 |
